Results taken from ChEMBL document CHEMBL2385072, “Development of oleanane-type triterpenes as a new class of HCV entry inhibitors” (J Med Chem, 2013).

What was measured:
Details in all cases: HEK-293T
Hepatitis C virus [1] = assay: Antiviral activity against pseudo HCV infected in human 293T cells assessed as inhibition of HCV pseudo particles entry at 1 uM after 72 hrs by luciferase reporter gene assay; type: functional, Hepacivirus hominis
Hepatitis C virus [2] = assay: Antiviral activity against pseudo HCV infected in human 293T cells assessed as inhibition of HCV pseudo particles entry at 5 uM after 72 hrs by luciferase reporter gene assay; type: functional, Hepacivirus hominis
[3] = system: Vesicular stomatitis virus; assay: Antiviral activity against pseudo VSV infected in human 293T cells assessed as inhibition of vesicular stromatis G protein pseudo particles entry at 1 uM after 72 hrs by luciferase reporter gene assay; type: functional
[4] = system: Vesicular stomatitis virus; assay: Antiviral activity against pseudo VSV infected in human 293T cells assessed as inhibition of vesicular stromatis G protein pseudo particles entry at 5 uM after 72 hrs by luciferase reporter gene assay; type: functional

Compound | inhibition at 1 µM (Hepatitis C virus [1]) | inhibition at 5 µM (Hepatitis C virus [2]) | inhibition at 1 µM [3] | inhibition at 5 µM [4]
CC1(C)CC[C@]2(C(=O)O[C@@H]3O[C@H](CO)[C@@H](O[C@@H]4O[C@H](CO)[C@H](O)[C@H](O)[C@H]4O)[C@H](O)[C@H]3O)[C@H](O)C[C@]3(C)C(=CC[C@@H]4[C@@]5(C)CC[C@H](O)C(C)(C)[C@@H]5CC[C@]43C)[C@@H]2C1 | 32.7% | 40.1% | 22.6% | 16.7%
COC(=O)[C@]12CCC(C)(C)C[C@H]1C1=CC[C@@H]3[C@@]4(C)CCC(=O)C(C)(C)[C@@H]4CC[C@@]3(C)[C@]1(C)C[C@H]2O | 3.5% | 64.7% | 21.5% | 55.4%
CC1(C)CC[C@]2(C(=O)NCc3cn([C@@H]4OC[C@@H](O)[C@@H](O)[C@@H]4O)nn3)[C@H](O)C[C@]3(C)C(=CC[C@@H]4[C@@]5(C)CC[C@H](O)C(C)(C)[C@@H]5CC[C@]43C)[C@@H]2C1 | 18.7% | 32.2% | 8.4% | 25.1%
CC1(C)CC[C@]2(C(=O)NCc3cn([C@@H]4O[C@H](CO)[C@@H](O[C@H]5O[C@H](CO)[C@@H](O)[C@H](O)[C@H]5O)[C@H](O)[C@H]4O)nn3)[C@H](O)C[C@]3(C)C(=CC[C@@H]4[C@@]5(C)CC[C@H](O)C(C)(C)[C@@H]5CC[C@]43C)[C@@H]2C1 | 9.3% | 29.7% | 25.8% | 48.1%
CC(=O)O[C@H]1[C@H](OC(C)=O)[C@H](OC(C)=O)CO[C@H]1n1cc(CNC(=O)[C@]23CCC(C)(C)C[C@H]2C2=CC[C@@H]4[C@@]5(C)CC[C@H](O)C(C)(C)[C@@H]5CC[C@@]4(C)[C@]2(C)C[C@H]3O)nn1 | 26.3% | 72.6% | -6.6% | 20.9%
CC(=O)OC[C@H]1O[C@@H](n2cc(CNC(=O)[C@]34CCC(C)(C)C[C@H]3C3=CC[C@@H]5[C@@]6(C)CC[C@H](O)C(C)(C)[C@@H]6CC[C@@]5(C)[C@]3(C)C[C@H]4O)nn2)[C@H](OC(C)=O)[C@@H](OC(C)=O)[C@@H]1O[C@H]1O[C@H](COC(C)=O)[C@@H](OC(C)=O)[C@H](OC(C)=O)[C@H]1OC(C)=O | 56.4% | 79.7% | 13.2% | 28.9%
CC1(C)CC[C@]2(C(=O)O)[C@H](OS(=O)(=O)O)C[C@]3(C)C(=CC[C@@H]4[C@@]5(C)CC[C@H](O)C(C)(C)[C@@H]5CC[C@]43C)[C@@H]2C1 | 1% | -2.7% | 38.5% | 34.7%
CC1(C)CC[C@]2(C(=O)O[C@@H]3OC[C@@H](O)[C@@H](O)[C@@H]3O)[C@H](O)C[C@]3(C)C(=CC[C@@H]4[C@@]5(C)CC[C@H](O)C(C)(C)[C@@H]5CC[C@]43C)[C@@H]2C1 | 34.7% | 54.6% | 15.6% | 5.8%
COC(=O)[C@@]12C=C[C@]3(C)C(=CC[C@@H]4[C@@]5(C)CC[C@H](O)C(C)(C)[C@@H]5CC[C@]43C)[C@@H]1CC(C)(C)CC2 | 12.3% | 27.9% | 15.2% | 18.8%
CC(=O)O[C@@H]1[C@@H](OC(C)=O)[C@H](OC(=O)[C@]23CCC(C)(C)C[C@H]2C2=CC[C@@H]4[C@@]5(C)CC[C@H](O)C(C)(C)[C@@H]5CC[C@@]4(C)[C@]2(C)C[C@H]3O)OC[C@H]1OC(C)=O | 17.5% | 70.7% | 20.1% | 21.7%
CC1(C)CC[C@]2(C(=O)NCc3cn([C@@H]4O[C@H](CO)[C@@H](O[C@H]5O[C@H](CO)[C@@H](O[C@H]6O[C@H](CO)[C@@H](O)[C@H](O)[C@H]6O)[C@H](O)[C@H]5O)[C@H](O)[C@H]4O)nn3)[C@H](O)C[C@]3(C)C(=CC[C@@H]4[C@@]5(C)CC[C@H](O)C(C)(C)[C@@H]5CC[C@]43C)[C@@H]2C1 | 12.8% | 39% | 19.7% | 27.4%
CC(=O)OC[C@H]1O[C@@H](n2cc(CNC(=O)[C@]34CCC(C)(C)C[C@H]3C3=CC[C@@H]5[C@@]6(C)CC[C@H](O)C(C)(C)[C@@H]6CC[C@@]5(C)[C@]3(C)C[C@H]4O)nn2)[C@H](OC(C)=O)[C@@H](OC(C)=O)[C@@H]1O[C@H]1O[C@H](COC(C)=O)[C@@H](O[C@H]2O[C@H](COC(C)=O)[C@@H](OC(C)=O)[C@H](OC(C)=O)[C@H]2OC(C)=O)[C@H](OC(C)=O)[C@H]1OC(C)=O | 45.4% | 62.9% | 17.7% | 14%
COC(=O)[C@]12CCC(C)(C)C[C@H]1C1=CC[C@@H]3[C@@]4(C)CCC(=O)C(C)(C)[C@@H]4CC[C@@]3(C)[C@]1(C)CC2=O | 48.2% | 70.1% | -10% | -2.8%
COC(=O)[C@]12CCC(C)(C)C[C@H]1C1=CC[C@@H]3[C@@]4(C)CC[C@H](OC)C(C)(C)[C@@H]4CC[C@@]3(C)[C@]1(C)C[C@H]2OC | 1.7% | 7.9% | 8.5% | 14.2%
CC1(C)CC[C@]2(C(=O)NCc3cn([C@@H]4O[C@H](CO)[C@@H](O)[C@H](O)[C@@H]4O)nn3)[C@H](O)C[C@]3(C)C(=CC[C@@H]4[C@@]5(C)CC[C@H](O)C(C)(C)[C@@H]5CC[C@]43C)[C@@H]2C1 | 17.5% | 25% | 17.9% | 19.5%
CC(=O)O[C@@H]1[C@H](OC(C)=O)[C@H](n2cc(CNC(=O)[C@]34CCC(C)(C)C[C@H]3C3=CC[C@@H]5[C@@]6(C)CC[C@H](O)C(C)(C)[C@@H]6CC[C@@]5(C)[C@]3(C)C[C@H]4O)nn2)O[C@H](C)[C@H]1OC(C)=O | 17% | 71.6% | 32.6% | -10.7%
CC(=O)OC[C@H]1O[C@@H](O[C@H]2[C@H](OC(C)=O)[C@@H](OC(C)=O)[C@H](n3cc(CNC(=O)[C@]45CCC(C)(C)C[C@H]4C4=CC[C@@H]6[C@@]7(C)CC[C@H](O)C(C)(C)[C@@H]7CC[C@@]6(C)[C@]4(C)C[C@H]5O)nn3)O[C@@H]2COC(C)=O)[C@H](OC(C)=O)[C@@H](OC(C)=O)[C@H]1OC(C)=O | 24.6% | 71.8% | 39% | 32.1%
COC(=O)[C@]12CCC(C)(C)C[C@H]1C1=CC[C@@H]3[C@@]4(C)CC[C@H](O[Si](C)(C)C(C)(C)C)C(C)(C)[C@@H]4CC[C@@]3(C)[C@]1(C)C[C@H]2O | 44.3% | 27.8% | 27.4% | 37.4%
C[C@H]1O[C@@H](n2cc(CNC(=O)[C@]34CCC(C)(C)C[C@H]3C3=CC[C@@H]5[C@@]6(C)CC[C@H](O)C(C)(C)[C@@H]6CC[C@@]5(C)[C@]3(C)C[C@H]4O)nn2)[C@@H](O)[C@@H](O)[C@@H]1O | 32% | 67% | 7.7% | 13.9%
CC(=O)O[C@@H]1[C@H](OC(C)=O)[C@H](n2cc(CNC(=O)[C@]34CCC(C)(C)C[C@H]3C3=CC[C@@H]5[C@@]6(C)CC[C@H](O)C(C)(C)[C@@H]6CC[C@@]5(C)[C@]3(C)C[C@H]4O)nn2)OC[C@H]1OC(C)=O | 21.8% | 65.8% | 29.3% | 32.2%
CC1(C)CC[C@]2(C(=O)NCc3cn([C@@H]4OC[C@@H](O)[C@H](O)[C@@H]4O)nn3)[C@H](O)C[C@]3(C)C(=CC[C@@H]4[C@@]5(C)CC[C@H](O)C(C)(C)[C@@H]5CC[C@]43C)[C@@H]2C1 | 20.3% | 43.2% | 7% | 35.2%
CC1(C)CC[C@]2(C(=O)NCc3cn([C@@H]4O[C@H](CO)[C@@H](O[C@@H]5O[C@H](CO)[C@H](O)[C@H](O)[C@H]5O)[C@H](O)[C@H]4O)nn3)[C@H](O)C[C@]3(C)C(=CC[C@@H]4[C@@]5(C)CC[C@H](O)C(C)(C)[C@@H]5CC[C@]43C)[C@@H]2C1 | 23.1% | 14.6% | 47% | 47.3%
CC(=O)OC[C@H]1O[C@@H](OC(=O)[C@]23CCC(C)(C)C[C@H]2C2=CC[C@@H]4[C@@]5(C)CC[C@H](O)C(C)(C)[C@@H]5CC[C@@]4(C)[C@]2(C)C[C@H]3O)[C@H](OC(C)=O)[C@@H](OC(C)=O)[C@@H]1OC(C)=O | 35.7% | 78.3% | 3.7% | 13.9%
CC1(C)CC[C@]2(C(=O)NCc3cn([C@@H]4OC[C@@H](O)[C@H](O)[C@H]4O)nn3)[C@H](O)C[C@]3(C)C(=CC[C@@H]4[C@@]5(C)CC[C@H](O)C(C)(C)[C@@H]5CC[C@]43C)[C@@H]2C1 | 14.8% | 27.8% | 34.4% | 27%
CC(=O)O[C@@H]1[C@H](OC(=O)[C@]23CCC(C)(C)C[C@H]2C2=CC[C@@H]4[C@@]5(C)CC[C@H](O)C(C)(C)[C@@H]5CC[C@@]4(C)[C@]2(C)C[C@H]3O)OC[C@@H](OC(C)=O)[C@H]1OC(C)=O | 19.3% | 60.6% | 17.1% | 20.1%
